According to patent US20120034210A1, “COMPOSITIONS FOR POTENTIATING APOPOSIS SIGNALS IN TUMOUR CELLS” (INSTITUT BERGONIE, priority 2008, published 2012):

What was measured:
Type in all cases: cell-based, human
[1] = system: Raji, BL2, Jurkat cell lines and activated PBL; experiment: Apoptosis % by loss of mitochondrial membrane potential
Protocol: 2 to 4.10^4 cells were deposited in wells in a 96-well plate. The cells were incubated, in the presence of the different reactants for the times specified, at 37° C. in a final volume of 100 or 200 μl. The apoptotic cells were identified in the cellular populations by measuring mitochondrial de-polarisation. […] These potentiometric probes allowed monitoring the variations of the mitochondrial membrane potential. […] Following cell treatment with the different drugs, the former were placed in the presence of TMRM or DIOC6 at 10 nM concentration, for 20 minutes at 37° C. then the fluorescence of the cells was analysed by flow cytometry.

[2] = system: intracellular calcium concentration; experiment: Intracellular Ca2+ concentration, indo-1 (micro)spectrofluorimetry
Protocol: Principle: [Ca^2+]i was measured by microspectrofluorimetry using a calcium sensitive fluorescent probe: indo-1. When excited at 360 nm wavelength, the so-called monoexcitation/double emission indo-1 probe transmitted back in a spectrum ranging from 400 to 500 nm. Binding of Ca^2+ to indo-1 caused displacement of the emission spectrum after excitation. The emission maximum in the unbound form was located around 480 nm. The emission of the complexed form was around 405 nm. An increase of calcium concentration thus caused the emission to increase to 405 nm and the emission to decrease to 480 nm. The ratio of both fluorescence intensities allowed to be independent from the quantity of the probe and to determine the [Ca^2+]i according to the Grynkiewicz equation:
[Ca^2+]i(nM)=Kd.β×(R−Rmin)/(Rmax−R)
Rmax, Rmin and Kd. β were determined by combining electrophysiology (patch clamp) and spectrofluorimetry. Rmax was determined by placing in the patch pipette a medium containing 10 mM CaCl2. Rmin was obtained by placing as an intrapipette solution a calcium-deprived medium (10 mM EGTA).
The cells were then rinsed with HBSS (800 rpm centrifugation for 2 minutes) and placed in an observation chamber on a glass coverslip. […] The excitation light is supplied by a Xenon lamp (100W). […] The substances to be tested were applied using a glass pipette positioned at some twenty μm of the studied cell and connected to a pneumatic system.
The principle as well as the loading of the cells were identical with the measurement on single cells. In such a case, approx. 40,000 cells were placed in a quartz tub under constant agitation. The tub was then placed in a Hitachi spectrofluorimeter whereof the excitation monochromator was set to 350 nm. […] The signals were transmitted to a computer via an analogue/digital converter. So as to be able to apply the Grynkiewicz equation (see above) and translate the fluorescence ratios measured in calcium values, the calibration parameters were entered into the software. The substances to be tested were applied directly in the tube under constant agitation.

CD95 = CD95 aggregation by size exclusion chromatography; conditions: Jurkat cells; BAPTA-AM pre-treatment
Source text: In order to validate that CD95 underwent aggregation upon down-modulation of intracellular calcium, the formation the micrometer-sized CD95-containing domain was investigated by using size exclusion chromatography (FIG. 10). Decrease in intracellular calcium allowed the redistribution of a significant proportion of CD95 into heavy weighted fractions (FIG. 10), which confirmed that the slight down-modulation of [Ca^2+]i led to the formation of cluster of CD95. It was also observed that calcium-driven CD95-CAP occurred independently of de novo expression of CD95L since no trace of the membrane-bound ligand was detected. […] Since CD95 clustering is an early step of the CD95 molecular ordering, the impact of intracellular calcium on the initial events of CD95 pathway and on cell death was further assessed.

In the case of `CC(=O)OCOC(=O)CN(CC(=O)OCOC(C)=O)c1ccccc1OCCOc1ccccc1N(CC(=O)OCOC(C)=O)CC(=O)OCOC(C)=O` [BAPTA-AM, 1,2-bis-(o-Aminophenoxy)ethane-N,N,N′,N′-tetraacetic tetra-(acetoxymethyl) acid Ester], the “potentiation of apoptotic signals mediated by edelfosine or Rituximab” value ([1]; B lymphoma cell lines, BAPTA-AM 1 μM pre-incubation) is reported as “allowed potentiating apoptotic signals”, the “apoptotic signal with Rituximab associated with BAPTA-AM” value ([1]; BL2 cell line, deprived of Fas receptor, Rituximab resistant) is reported as “no increase in the apoptotic signal has been observed” and the “increase in intracellular calcium in response to extracellular 3 mM Ca2+” value ([2]; Raji, BAPTA-AM 10 μM pretreatment) is reported as “smaller increase in the intracellular calcium concentration”. The “CD95-mediated peak of calcium” value ([2]; non-cytotoxic concentrations, CD95 stimulation) was “totally abrogated the CD95-mediated peak of calcium”, the “basal [Ca2+]i” value ([2]; pre-incubation of cells) was “induced a faint decrease in the basal [Ca^2+]i” and the CD95 aggregation (CD95) was “formation of the CD95 aggregation”.
